The record followed here is publication PMC7016953 (Cells, 2020).

SMILES strings stand for the structures.

One test relates to parental HEK293 cells. Nature of the test: [Ca2+]i response in un-transfected parental HEK293 cells. It counts as cell-based, human. Here is the method:
(§1) All fluorometric Ca^2+ assays were done in (4-(2-hydroxyethyl)-1-piperazineethanesulfonic acid) (HEPES)-buffered saline (HBS), containing 132 mM NaCl, 6 mM KCl, 1 mM MgCl2, 1 mM CaCl2, 5.5 mM D-glucose, 10 mM HEPES, and 0.035% bovine serum albumin (BSA) adjusted to pH 7.4 with NaOH. For measurements in Ca^2+-free bath solutions, a modified HBS without CaCl2 was supplemented with 200 µM ethylene glycol-bis(β-aminoethyl ether)-N,N,N′,N′-tetraacetic acid (EGTA).
(§2) The primary compound screen and the generation of concentration response curves in HEK293 cells or in PC12 cells were performed by using a custom-made fluorescence plate imager built into a robotic liquid handling station equipped with a 96-tip multichannel head (Freedom Evo 150, Tecan, Männedorf, Switzerland) as described previously. To this end, trypsinized cell suspensions were loaded with 4 µM fluo-4/AM (Invitrogen, Thermo Fisher Scientific, Waltham, MA, U.S.A.) in cell culture medium for 30 min at 37 °C. After brief centrifugation, cells were resuspended in HBS and dispensed into black pigmented, clear-bottom 384-well plates (Greiner µClear, Frickenhausen, Germany). Plates were mounted on the imager, and fluorescence signals were recorded with a cooled Zyla 5.5 camera (Andor, Belfast, UK) through a 515 nm long pass filter. The image acquisition was controlled by the µManager software (http://micro-manager.org), and excitation with a LED array (470 nm) was synchronized by the camera trigger output. After baseline recording for about 60 s, the compound libraries or serial dilutions of activators or inhibitors were added to the cells by the liquid handling device. When inhibitory potencies were evaluated, a second pipetting step with the respective reference agonist was performed. Fluorescence intensities were calculated from image stacks for each well with ImageJ (National Institutes of Health, Bethesda, MD, U.S.A.), corrected for background signals, and normalized to the initial intensities (F/F0). […]

Test [1] has as its system T1, heteromeric TRPC3:TRPC6 channel complexes.
T1 construct: expressed in transfected cells; host or cells: HEK293, stably co-transfected
Nature of the test: Fluo-4 Ca2+ influx assay in HEK293 cells co-expressing TRPC3 and TRPC6. It counts as cell-based. The conditions noted are these: fluo-4 concentration response analysis. The protocol: as §1, §2

For another test, the system named is T2, TRPC6.
T2 construct: expressed in transfected cells
Nature of the test: Whole-cell patch-clamp recordings in HEK TRPC6-YFP cells. It counts as cell-based, human. The conditions noted are these: 100 µM artemisinin. The protocol:
The recordings of TRPC3, TRPC6, or TRPC7 membrane currents in HEK293 or PC12 cells were realized by using a Multiclamp 700B amplifier with a Digidata 1440A digitizer controlled by the PClamp 10 software (all Molecular Devices, Sunnyvale, CA, U.S.A.). Recordings were obtained at room temperature either in the whole-cell or in an outside-out configuration as indicated. Cells were seeded as described above, but at lower density, mounted in a chamber (Warner Instruments, Hamden, CT; U.S.A.), placed onto the stage of an inverted microscope, and perfused with required solution. The standard extracellular solution contained 140 mM NaCl, 5 mM CsCl, 2 mM MgCl2, 1 mM CaCl2, 10 mM HEPES, and 0.035% BSA adjusted to pH 7.4 with NaOH. The composition of standard intracellular solution was 140 mM CsCl, 1 mM MgCl2, 5 mM EGTA, and 10 mM HEPES adjusted to pH 7.25 with CsOH; the osmolarity was 295 mOsm l^−1. In outside-out measurements, the pipette solution contained 5 mM EGTA and 1.1 mM CaCl2 to achieve a calculated free Ca^2+ concentration of 100 nM.
Patch pipettes were pulled from borosilicate glass capillaries BG150F-8P (Science Products, Hofheim, Germany) with a PIP6 pipette puller (HEKA Elektronik, Lambrecht, Germany). […] In all whole-cell measurements, the series resistance was lower than 13 MΩ, and compensated by 70%. […]
(In general: Patch clamp records ionic current or voltage across a cell membrane.)

`C[C@@H]1CC[C@H]2[C@@H](C)C(=O)O[C@@H]3O[C@@]4(C)CC[C@@H]1[C@]32OO4` [artemisinin]: in the test on parental HEK293 cells (concentrations up to 50 µM), the “response of un-transfected parental HEK293 cells” value was “no response”. Moreover, the “[Ca2+]i signals in parental HEK293 cells” value in the test with parental HEK293 cells (single-cell analysis, followed by carbachol) is “does not induce [Ca^2+]i signals”. For the same compound, in test [1], the “response of cells stably transfected with both TRPC3 and TRPC6” value is recorded as “in a very similar fashion as HEKTRPC3-YFP cells”. Besides, the “ionic currents in TRPC6-expressing HEK cells” value in the test on TRPC6 is listed as “remained unaffected”.
